IC50 and inhibition data for 26 molecules are collected here from ChEMBL document CHEMBL3352554, “Synthesis and structure-activity relationships of 4-fluorophenyl-imidazole p38α MAPK, CK1δ and JAK2 kinase inhibitors” (Bioorg Med Chem Lett, 2014).

By IC50 is commonly meant the concentration needed to halve the response being measured.

The structures appear in SMILES notation. Calls of active or inactive are those of the source. The calls are words filed in the database; no cut-off is given here.

Assay [1] has as its target Casein kinase I isoform delta (Homo sapiens, UniProt P48730). The assay is described as follows: Inhibition of CK1-delta (unknown origin) by radiometric assay.
Assay [2] deals with Tyrosine-protein kinase JAK1 (Homo sapiens, UniProt P23458). The assay is described as follows: Inhibition of JAK1 (unknown origin) by radiometric assay.
The target of assay [3] is Tyrosine-protein kinase JAK2 (Homo sapiens, UniProt O60674). The assay is described as follows: Inhibition of JAK2 (unknown origin) by radiometric assay.
Assay [4] addresses T1, Tyrosine-protein kinase JAK3 (Homo sapiens, UniProt P52333).
T1 sequence (P52333 whole entry): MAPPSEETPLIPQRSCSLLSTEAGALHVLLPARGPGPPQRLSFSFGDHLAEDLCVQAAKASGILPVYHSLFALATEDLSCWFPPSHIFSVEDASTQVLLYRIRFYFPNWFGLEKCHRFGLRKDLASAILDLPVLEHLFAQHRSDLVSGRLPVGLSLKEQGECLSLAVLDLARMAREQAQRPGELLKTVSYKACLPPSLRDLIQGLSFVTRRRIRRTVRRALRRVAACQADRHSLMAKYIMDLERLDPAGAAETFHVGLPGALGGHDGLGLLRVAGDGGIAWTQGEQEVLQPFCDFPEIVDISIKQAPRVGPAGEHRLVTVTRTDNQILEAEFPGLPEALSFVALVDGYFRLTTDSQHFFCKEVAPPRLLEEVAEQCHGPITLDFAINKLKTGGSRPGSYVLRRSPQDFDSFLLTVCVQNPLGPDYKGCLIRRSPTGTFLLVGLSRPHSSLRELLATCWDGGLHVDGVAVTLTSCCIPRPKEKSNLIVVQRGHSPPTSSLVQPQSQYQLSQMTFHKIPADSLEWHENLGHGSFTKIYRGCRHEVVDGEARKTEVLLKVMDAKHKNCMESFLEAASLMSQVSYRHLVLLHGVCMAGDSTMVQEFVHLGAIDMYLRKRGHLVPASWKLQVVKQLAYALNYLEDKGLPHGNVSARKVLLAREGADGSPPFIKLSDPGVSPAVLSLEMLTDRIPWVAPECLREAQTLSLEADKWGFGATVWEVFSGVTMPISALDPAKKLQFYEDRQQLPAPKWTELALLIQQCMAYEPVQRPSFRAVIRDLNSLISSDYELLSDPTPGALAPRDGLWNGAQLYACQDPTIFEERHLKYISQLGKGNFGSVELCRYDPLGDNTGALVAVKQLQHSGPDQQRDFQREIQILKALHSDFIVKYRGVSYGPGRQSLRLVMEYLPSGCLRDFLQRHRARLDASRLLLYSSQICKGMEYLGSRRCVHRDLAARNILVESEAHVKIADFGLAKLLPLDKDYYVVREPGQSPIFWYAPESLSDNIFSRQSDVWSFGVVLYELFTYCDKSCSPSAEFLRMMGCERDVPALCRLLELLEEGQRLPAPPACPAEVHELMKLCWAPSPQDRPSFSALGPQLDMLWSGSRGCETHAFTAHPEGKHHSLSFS
The assay is described as follows: Inhibition of JAK3 (unknown origin) by radiometric assay.

The target of assay [5] is T2, Mitogen-activated protein kinase 14 (Homo sapiens, UniProt Q16539). The assay is described as follows: Inhibition of p38alpha MAPK (unknown origin) by radiometric assay.
Assay [6] concerns the target T2, Mitogen-activated protein kinase 14. The assay is described as follows: Inhibition of p38alpha MAPK in TNF-alpha-induced HUVEC assessed as downregulation of IL-6 mRNA expression at 10 uM incubated for 4 hrs by RT-PCR analysis. The assay is classed as cell-based.
The target is the same in assay [7]. The assay is described as follows: Inhibition of p38alpha MAPK in TNF-alpha-induced HUVEC assessed as downregulation of COX-2 mRNA expression at 10 uM incubated for 4 hrs by RT-PCR analysis. The assay is classed as cell-based.
Assay [8] shares this target. The assay is described as follows: Inhibition of p38alpha MAPK in TNF-alpha-induced HUVEC assessed as downregulation of VCAM-1 mRNA expression at 10 uM incubated for 4 hrs by RT-PCR analysis. The assay is classed as cell-based.

Sequence of Tyrosine-protein kinase JAK2 (O60674 whole entry): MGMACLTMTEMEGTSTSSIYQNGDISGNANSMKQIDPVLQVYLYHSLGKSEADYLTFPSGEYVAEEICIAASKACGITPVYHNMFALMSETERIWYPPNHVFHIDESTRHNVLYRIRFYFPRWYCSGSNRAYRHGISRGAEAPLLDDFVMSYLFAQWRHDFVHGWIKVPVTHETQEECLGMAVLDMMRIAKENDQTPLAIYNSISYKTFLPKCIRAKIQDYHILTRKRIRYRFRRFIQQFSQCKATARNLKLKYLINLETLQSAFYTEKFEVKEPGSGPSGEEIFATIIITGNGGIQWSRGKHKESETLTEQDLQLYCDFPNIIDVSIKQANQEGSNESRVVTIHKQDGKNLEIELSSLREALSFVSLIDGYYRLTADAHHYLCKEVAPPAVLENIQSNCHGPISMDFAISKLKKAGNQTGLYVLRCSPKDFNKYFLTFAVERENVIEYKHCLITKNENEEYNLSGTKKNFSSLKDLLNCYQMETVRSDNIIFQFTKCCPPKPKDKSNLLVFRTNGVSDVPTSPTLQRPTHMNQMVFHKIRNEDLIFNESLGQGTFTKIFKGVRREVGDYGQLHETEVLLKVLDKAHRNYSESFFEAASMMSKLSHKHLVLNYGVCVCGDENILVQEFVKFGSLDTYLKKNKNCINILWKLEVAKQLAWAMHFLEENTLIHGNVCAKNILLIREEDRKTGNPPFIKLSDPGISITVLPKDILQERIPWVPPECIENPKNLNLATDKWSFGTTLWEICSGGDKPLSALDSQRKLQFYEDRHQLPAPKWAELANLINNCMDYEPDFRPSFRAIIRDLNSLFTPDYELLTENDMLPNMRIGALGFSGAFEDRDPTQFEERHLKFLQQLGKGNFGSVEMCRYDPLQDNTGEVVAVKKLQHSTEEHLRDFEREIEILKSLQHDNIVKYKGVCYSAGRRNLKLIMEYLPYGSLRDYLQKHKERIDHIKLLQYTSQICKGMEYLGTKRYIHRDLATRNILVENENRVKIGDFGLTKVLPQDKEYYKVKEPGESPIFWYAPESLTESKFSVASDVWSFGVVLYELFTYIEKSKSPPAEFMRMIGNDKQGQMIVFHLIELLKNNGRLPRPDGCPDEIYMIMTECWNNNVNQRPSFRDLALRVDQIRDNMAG
T2 sequence (Q16539 whole entry): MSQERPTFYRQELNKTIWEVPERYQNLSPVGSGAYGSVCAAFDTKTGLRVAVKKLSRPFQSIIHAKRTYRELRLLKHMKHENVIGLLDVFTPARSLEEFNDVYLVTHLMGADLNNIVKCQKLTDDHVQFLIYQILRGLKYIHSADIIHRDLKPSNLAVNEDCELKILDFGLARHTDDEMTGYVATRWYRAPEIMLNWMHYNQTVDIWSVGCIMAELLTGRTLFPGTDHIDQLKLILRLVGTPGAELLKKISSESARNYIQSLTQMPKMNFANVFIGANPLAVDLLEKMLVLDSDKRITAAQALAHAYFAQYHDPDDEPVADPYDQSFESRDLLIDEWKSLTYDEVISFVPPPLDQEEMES
Sequence of Casein kinase I isoform delta (P48730 whole entry, canonical isoform): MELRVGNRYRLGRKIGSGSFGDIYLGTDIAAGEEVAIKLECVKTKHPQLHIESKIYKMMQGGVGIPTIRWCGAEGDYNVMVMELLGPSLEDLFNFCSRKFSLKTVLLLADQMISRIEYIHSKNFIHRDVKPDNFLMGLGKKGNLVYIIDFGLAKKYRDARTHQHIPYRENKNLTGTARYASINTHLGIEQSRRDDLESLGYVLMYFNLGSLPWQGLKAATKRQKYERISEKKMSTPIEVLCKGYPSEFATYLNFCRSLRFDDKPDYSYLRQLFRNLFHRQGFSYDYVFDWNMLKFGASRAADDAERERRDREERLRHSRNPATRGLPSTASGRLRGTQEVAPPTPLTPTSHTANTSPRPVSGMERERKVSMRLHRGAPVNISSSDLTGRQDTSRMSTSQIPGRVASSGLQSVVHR
Sequence of Tyrosine-protein kinase JAK1 (P23458 whole entry): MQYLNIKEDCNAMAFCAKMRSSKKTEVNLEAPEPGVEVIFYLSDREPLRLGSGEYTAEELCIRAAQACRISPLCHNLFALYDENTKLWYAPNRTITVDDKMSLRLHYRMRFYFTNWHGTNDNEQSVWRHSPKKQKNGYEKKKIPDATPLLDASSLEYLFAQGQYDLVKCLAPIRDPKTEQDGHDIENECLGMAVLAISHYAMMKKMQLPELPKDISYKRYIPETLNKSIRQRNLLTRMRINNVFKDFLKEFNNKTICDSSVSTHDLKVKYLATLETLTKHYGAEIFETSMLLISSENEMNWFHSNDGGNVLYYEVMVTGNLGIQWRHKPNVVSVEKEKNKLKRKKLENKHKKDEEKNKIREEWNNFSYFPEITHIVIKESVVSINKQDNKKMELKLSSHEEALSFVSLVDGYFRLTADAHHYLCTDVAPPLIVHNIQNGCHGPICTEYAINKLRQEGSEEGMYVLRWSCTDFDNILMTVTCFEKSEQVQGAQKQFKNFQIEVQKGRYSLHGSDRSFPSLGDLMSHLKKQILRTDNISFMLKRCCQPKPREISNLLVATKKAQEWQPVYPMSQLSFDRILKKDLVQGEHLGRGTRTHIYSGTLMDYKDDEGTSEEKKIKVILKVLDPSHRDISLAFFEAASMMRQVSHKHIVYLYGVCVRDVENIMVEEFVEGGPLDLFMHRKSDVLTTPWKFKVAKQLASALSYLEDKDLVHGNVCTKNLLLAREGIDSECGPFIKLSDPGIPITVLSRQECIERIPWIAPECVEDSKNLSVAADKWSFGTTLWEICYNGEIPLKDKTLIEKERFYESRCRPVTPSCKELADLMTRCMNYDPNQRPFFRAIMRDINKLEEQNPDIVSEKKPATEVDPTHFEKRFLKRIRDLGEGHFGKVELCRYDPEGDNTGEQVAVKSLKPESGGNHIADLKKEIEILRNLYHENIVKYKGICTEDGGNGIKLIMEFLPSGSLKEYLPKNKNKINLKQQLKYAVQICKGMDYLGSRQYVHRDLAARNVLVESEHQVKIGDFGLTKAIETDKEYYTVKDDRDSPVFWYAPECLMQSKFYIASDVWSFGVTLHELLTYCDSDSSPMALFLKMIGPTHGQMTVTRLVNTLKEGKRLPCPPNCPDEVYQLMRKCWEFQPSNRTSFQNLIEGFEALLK

In the case of `Cn1c(-c2cn(CCP(=O)(O)O)nn2)nc(-c2ccc(F)cc2)c1-c1ccncc1`, the concentration for half-maximal inhibition (IC50) was 0.225 µM in assay [1], above 100 µM in assay [2], above 100 µM in assay [3] and above 100 µM in assay [4].

In the case of `Cn1c(-c2c[nH]nn2)nc(-c2ccc(F)cc2)c1-c1ccncc1`, the IC50 in assay [5] was 0.21 µM; in assay [1], 0.202 µM; in assay [2], above 100 µM; in assay [3], above 100 µM; in assay [4], above 100 µM.

As for `CCOP(=O)(CCn1cc(-c2ccn3c(-c4ccnc(SC)n4)c(-c4ccc(F)cc4)nc3n2)nn1)OCC`, the IC50 was 12 µM in assay [5]; 21.4 µM in assay [1]; above 100 µM in assay [2]; above 100 µM in assay [3]; above 100 µM in assay [4].

In the case of `CCOC(=O)Cn1cc(-c2ccc(-c3nc(-c4ccc(F)cc4)c(-c4cc[nH]c(=O)c4)[nH]3)cc2)nn1`, the IC50 in assay [5] was found to be 32.9 µM; in assay [1], 24.5 µM; in assay [2], 80.1 µM; in assay [3] it was 0.352 µM; in assay [4] it was 3.03 µM.

`Oc1ccc(-c2nc(-c3ccncc3)c(-c3ccc(F)cc3)[nH]2)cc1` [SB-202190]: the IC50 in assay [1] is 0.188 µM; in assay [2], above 100 µM; in assay [3], above 100 µM; in assay [4], above 100 µM.

Take `Cn1c(-c2cn(-c3ccc(C(=O)O)cc3)nn2)nc(-c2ccc(F)cc2)c1-c1ccncc1`: the IC50 was 0.166 µM in assay [5]; 1.6 µM in assay [1]; above 100 µM in assay [2]; above 100 µM in assay [3]; above 100 µM in assay [4].

Take `CSc1nccc(-c2[nH]c(-c3ccc(O)cc3)nc2-c2ccc(F)cc2)n1`: the IC50 is 0.0955 µM in assay [5]; 5.96 µM in assay [1]; above 100 µM in assay [2]; above 100 µM in assay [3]; 78.3 µM in assay [4].

In the case of `CCOP(=O)(CCn1cc(-c2nc(-c3ccc(F)cc3)c(-c3ccncc3)n2C)nn1)OCC`, the half-maximal inhibitory concentration (IC50) in assay [5] was 2.48 µM; in assay [1], 3.1 µM; in assay [2] it was above 100 µM; in assay [3] it was above 100 µM; in assay [4] it was above 100 µM.

`CCOP(=O)(CCn1cc(-c2ccc(-c3nc(-c4ccc(F)cc4)c(-c4cc[nH]c(=O)c4)[nH]3)cc2)nn1)OCC`: the IC50 in assay [5] is above 100 µM; in assay [1] it was 44.3 µM; in assay [2] it was 23.9 µM; in assay [3], 4.2 µM; in assay [4] it was 37.4 µM.

For `Cn1c(-c2cn(CCO)nn2)nc(-c2ccc(F)cc2)c1-c1ccncc1`, the IC50 was 0.783 µM in assay [5]; 0.24 µM in assay [1]; above 100 µM in assay [2]; above 100 µM in assay [3]; above 100 µM in assay [4].

Take `C#Cc1ccn2c(-c3ccnc(SC)n3)c(-c3ccc(F)cc3)nc2n1`: the IC50 in assay [5] was 2.51 µM; in assay [1], above 100 µM; in assay [2] it was above 100 µM; in assay [3] it was above 100 µM; in assay [4] it was above 100 µM.

Consider `O=c1cc(-c2[nH]c(-c3ccc(O)cc3)nc2-c2ccc(F)cc2)cc[nH]1`, for which the IC50 in assay [5] is 4.96 µM; in assay [1], 19.7 µM; in assay [2], 54.6 µM; in assay [3], 0.911 µM; in assay [4], 14.4 µM. Further, the inhibition entry in assay [6], in assay [7] and in assay [8] was “inactive” in each case.

On to `CSc1nccc(-c2c(-c3ccc(F)cc3)nc3nc(N)ccn23)n1`, for which the IC50 in assay [5] was 0.12 µM; in assay [1], above 100 µM; in assay [2], above 100 µM; in assay [3], above 100 µM; in assay [4], above 100 µM.

As to `C[C@H](Nc1nccc(-c2c(-c3ccc(F)cc3)nc3nc(N)ccn23)n1)c1ccccc1`, the IC50 in assay [5] was 0.0085 µM; in assay [1], above 100 µM; in assay [2] it was above 100 µM; in assay [3], above 100 µM; in assay [4], above 100 µM.

As to `O=c1cc(-c2[nH]c(-c3ccc(-c4nnn[nH]4)cc3)nc2-c2ccc(F)cc2)cc[nH]1`, the concentration for half-maximal inhibition (IC50) in assay [5] amounted to 2.53 µM; in assay [1], 12.1 µM; in assay [2], 1.68 µM; in assay [3], 0.061 µM; in assay [4], 0.783 µM.

`Cn1c(-c2cn(-c3cccc(C(=O)O)c3)nn2)nc(-c2ccc(F)cc2)c1-c1ccncc1`: the IC50 in assay [1] was 0.089 µM; in assay [2] it was above 100 µM; in assay [3] it was above 100 µM; in assay [4], above 100 µM.

In the case of `C#Cc1ccc(-c2nc(-c3ccc(F)cc3)c(-c3cc[nH]c(=O)c3)[nH]2)cc1`, the IC50 in assay [5] was 9.39 µM; in assay [1], 19.9 µM; in assay [2], above 10 µM; in assay [3], 14.3 µM; in assay [4], above 100 µM.

Consider `O=c1cc(-c2[nH]c(-c3ccc(-c4cn(CCO)nn4)cc3)nc2-c2ccc(F)cc2)cc[nH]1`, for which the IC50 was 18.6 µM in assay [5]; 17.9 µM in assay [1]; above 10 µM in assay [2]; 0.5 µM in assay [3]; 10.6 µM in assay [4].

As to `CSc1nccc(-c2c(-c3ccc(F)cc3)nc3nc(-c4cn(CCP(=O)(O)O)nn4)ccn23)n1`, the IC50 in assay [5], in assay [1], in assay [2], in assay [3] and in assay [4] was above 100 µM in each case.

For `O=C(O)c1cc(-c2nc(-c3ccc(F)cc3)c(-c3cc[nH]c(=O)c3)[nH]2)ccc1O`, the half-maximal inhibitory concentration (IC50) is 6.81 µM in assay [5]; 21.2 µM in assay [1]; above 100 µM in assay [2]; 3.71 µM in assay [3]; 21.4 µM in assay [4]. The inhibition result in assay [6], in assay [7] and in assay [8] was “inactive” throughout.

As to `Cn1c(-c2cn([C@@H]3[C@@H](O)[C@H](O)[C@@H](CO)O[C@H]3O)nn2)nc(-c2ccc(F)cc2)c1-c1ccncc1`, the IC50 is 1.02 µM in assay [5]; 0.439 µM in assay [1]; above 100 µM in assay [2]; above 100 µM in assay [3]; above 100 µM in assay [4].

Regarding `O=c1cc(-c2[nH]c(-c3ccc(-c4cn(CCP(=O)(O)O)nn4)cc3)nc2-c2ccc(F)cc2)cc[nH]1`, the IC50 in assay [5] was above 100 µM; in assay [1] it was 10.8 µM; in assay [2], above 100 µM; in assay [4], above 100 µM.

On to `C#Cc1ccc(-c2nc(-c3ccc(F)cc3)c(-c3ccnc(SC)n3)[nH]2)cc1`, for which the IC50 in assay [5] is 82.1 µM; in assay [1], 66.3 µM; in assay [2], above 100 µM; in assay [3] it was above 100 µM; in assay [4], above 100 µM.

As to `Cn1c(-c2cn([C@H]3CCNC[C@@H]3F)nn2)nc(-c2ccc(F)cc2)c1-c1ccncc1`, the 50% inhibitory concentration (IC50) in assay [1] was 0.437 µM; in assay [2], above 100 µM; in assay [3], above 100 µM; in assay [4], above 100 µM.

Regarding `O=c1cc(-c2[nH]c(C3CCNCC3)nc2-c2ccc(F)cc2)cc[nH]1`, the IC50 in assay [5] was found to be 1.14 µM; in assay [1] it was 12 µM; in assay [2] it was 16.9 µM; in assay [3], 6.62 µM; in assay [4], 11.8 µM. The inhibition result in assay [6], in assay [7] and in assay [8] was “inactive” throughout.

As for `CSc1nccc(-c2c(-c3ccc(F)cc3)nc3nc(-c4cn(CC(=O)O)nn4)ccn23)n1`, the IC50 in assay [5] is 0.25 µM; in assay [1], above 100 µM; in assay [2] it was above 100 µM; in assay [3], above 100 µM; in assay [4] it was above 100 µM.
